Experimental data as given in patent US11407741B2, “Compounds and their use as selective inhibitors of caspase-2” (priority 2017, dated 2022).
Where a SMILES comes first, the peptide text is derived from it.

Assays:
Caspase-2 = molecular target: T1, Caspase-2 (Homo sapiens, UniProt P42575); assay: Caspase-2 inhibition assay for irreversible inhibitors (kinact/KI, continuous method); assay type: biochemical
T1 construct: the Caspase-2 and Caspase-3 are human recombinant active enzymes; purchased Enzo Life ALX-201-057-U100
T1 sequence (P42575 170-325 limits assumed): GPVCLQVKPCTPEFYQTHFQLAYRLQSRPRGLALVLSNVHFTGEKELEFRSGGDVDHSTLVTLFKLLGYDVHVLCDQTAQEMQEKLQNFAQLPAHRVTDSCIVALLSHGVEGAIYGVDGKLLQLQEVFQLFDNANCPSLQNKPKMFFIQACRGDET
T1 sequence (P42575 348-452 limits assumed): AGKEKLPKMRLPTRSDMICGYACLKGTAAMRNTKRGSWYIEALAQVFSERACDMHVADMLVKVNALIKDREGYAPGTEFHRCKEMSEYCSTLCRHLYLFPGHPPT
Procedure: The efficiency of the comparative compound Δ2Me-TRP601, that is an already known group II Caspase inhibitor (inhibitor of Caspase-2, Caspase-3 and Caspase-7), has been assessed by a similar protocol described in Chauvier et al., 2011 Cell Death Dis 2011, 2:e203.
In this example, the Caspase-2 and Caspase-3 are human recombinant active enzymes that are respectively provided by Enzo Life® (ALX-201-057-U100) and R&D Systems® (707-C3-010/CF).
Caspase-2 is used at a final concentration of 0.1 nM in a “Caspase-2 buffer” containing 20 mM HEPES (pH 7.4), 5 mM DTT, 2 mM EDTA, 0.1% CHAPS and 800 mM succinate. Caspase-3 is used at a final concentration of 0.5 nM in a “Caspase-3 buffer” containing 20 mM HEPES (pH 7.4), 0.1% CHAPS, 5 mM DTT, and 2 mM EDTA.
The peptide substrates used for the enzymatic activity measurements are Ac-DEVD-AMC and Ac-VDVAD-AMC commercialized by EnzoLife® (respectively referenced ALX-260-031-M005 and ALX-260-060-M005). They are fluorogenic due to the presence of their AMC (7-amino-4-methylcoumarin) end group. The releasing of AMC enables to follow the enzymatic activity in fluorescence unit RFU over time in a 96-wells microplate.
The fluorescence values are measured at 37° C. with a spectrofluorometer with a microplate reader BMG FLUOstar OPTIMA. This apparatus is driven by the software Biolise® and is equipped with thermoelectric cooling device by Peltier effect. The mathematical analyses of the experimental data are done with the software Kaleidagraph®.
The inhibitory properties of the tested compounds are evaluated by the determination of the kinact/KI ratio regarding either Caspase-2 or Caspase-3 wherein: • kinact is the maximal inactivation rate constant, and • KI is the dissociation constant according to:
Said ratio is measured according to the continuous method (Allison R D. Curr Protoc Protein Sci. 2001 May; Chapter 3:Unit 3.5.; Chauvier et al., 2011 Cell Death Dis 2:e203; Tan et al., J Med Chem 2015, […]).
Briefly, Caspases activities were determined by monitoring the hydrolysis of fluorogenic substrates (λexc=355 nm, λem=460 nm) as a function of time, in the presence of untreated Caspases (control) or Caspases that had been incubated with a test compound, for 30 min minimum at 37° C. using a BMG Fluostar microplate reader (black 96-well microplates) and the initial velocity (V0) was determined from the linear portion of the progress curve.
Substrates and compounds were previously dissolved in DMSO at 10 mM, with the final solvent concentration kept at lower 4% (v/v). V0, relative velocities, KM and IC50 were determined from experimental data using Mars data Analysis 2.0 and Kaleidagraph softwares.
Inhibitor binding affinity (dissociation constant, KI) and first-order rate constant (k3) parameters were determined for Caspase-2 and Caspase-3 using the progress curve method. The ratio k3/KI was obtained by fitting the experimental data to the equations (F.U., fluorescence unit): […]
A continuous method of determination of the kinact/KI ratio was used for evaluating the inhibitory activity of the tested compounds against Caspase-2 and Caspase-3.
The reaction mixture is prepared by letting the enzyme and the buffer incubate at 37° C.
The tested inhibitory compounds are prepared at different concentrations (¼ IC50; ½ IC50; IC50; 2 IC50; 4 IC50) and put in the microplate.
Then the reaction mixture comprising the enzyme, the buffer and the substrate is rapidly added in the wells.
The activities of the enzyme are measured between 45 and 60 minutes.
The RFU (Relative Fluorescence Units)=f(times) curves are traced for each concentration of tested molecule according to the following equation: ((((−V0)*(exp(−kobs*m0)))+V0)/kobs*)+RFU0
in which: • V0 corresponds to the initial rate (RFU·s^−1) in the concentration of 0 of the tested inhibitory compound; • kobs is the inactivation rate constant; • RFU0 is the fluorescence value at t=0 min; and • m0 is the variable i.e. the inhibitor concentration.

Casp-2 = molecular target: T2, Casp-2 (Homo sapiens, UniProt P42575); assay: Caspase-2 inhibition assay for reversible inhibitors (IC50, Ki, dilution method); assay type: biochemical; details: for IC50: 30 minutes at 37° C. preincubation; for Ki: secondary plot of Lineweaver-Burk
T2 construct: the Caspase-2 and Caspase-3 are human recombinant active enzymes; purchased Enzo Life ALX-201-057-U100
T2 sequence (P42575 170-325 limits assumed): T1 sequence (P42575 170-325 limits assumed)
T2 sequence (P42575 348-452 limits assumed): T1 sequence (P42575 348-452 limits assumed)
Procedure: (§1) A preliminary step in the characterization of an inhibitor is the determination of its IC50. The IC50 is the necessary concentration of an inhibitor to decrease the enzyme activity by 50% of its maximum and uninhibited value.
(§2) The compound, at different concentrations, is incubated with the enzyme and buffer for 30 minutes at 37° C. to allow formation of the Enzyme-Inhibitor complex. The reaction is initiated by addition of buffer and substrate, and then activity is measured over 15 minutes for the determination of initial velocities.
(§3) The enzyme and the inhibitor (or DMSO as control) are incubated for 30 minutes at 37° C. The complex thus formed is diluted to 100th in the buffer/substrate mixture and then the activity measurement is started over 20 minutes. The initial rate obtained for the DMSO represents the 100% activity and will serve as a reference for the quantification of the residual activity of the enzyme in the presence of the inhibitor.
(§4) The reaction is started over 20 minutes upon addition of the buffer-substrate mixture.
(§5) Initial velocity values in RFU·min^−1 are reduced to Specific Activity (SA)values (pmol/min/μg enzyme) from an AMC standard range (1 RFU→0.02 pmol).
(§6) The evolution of the ratio 1/SA as a function of 1/[S] makes it possible to obtain the so-called double-inverse graph of Lineweaver-Burk from equation 4 (eq.4) where Vmaxapp and KMapp are the parameters which vary according to the type inhibition and as a function of inhibitor concentration. The intersection of the lines obtained for increasing inhibitor concentrations makes it possible to distinguish different types of inhibitors.
A secondary graph, obtained from the values of the slopes of the Lineweaver-Burk plot as a function of the concentration of inhibitor, makes it possible to obtain the value of the Ki. Its value is given by the abscissa point at the origin.
The initial velocity V0 is expressed from equation 8 (eq.8), where Vmax is the maximum reaction rate (reached when the enzyme is saturated with substrate), [S] the substrate concentration, KM is the Michaelis-Menten constant (substrate concentration corresponding to Vmax/2), Ki is the dissociation constant which accounts for the affinity of the inhibitor for the enzyme.

Caspase-3 = molecular target: T3, Caspase-3 (Homo sapiens, UniProt P42574); assay: Caspase-3 inhibition assay for reversible inhibitors (IC50, Ki); assay type: biochemical
T3 construct: the Caspase-2 and Caspase-3 are human recombinant active enzymes; purchased R&D Systems 707-C3-010/CF
T3 sequence (P42574 29-175 limits assumed): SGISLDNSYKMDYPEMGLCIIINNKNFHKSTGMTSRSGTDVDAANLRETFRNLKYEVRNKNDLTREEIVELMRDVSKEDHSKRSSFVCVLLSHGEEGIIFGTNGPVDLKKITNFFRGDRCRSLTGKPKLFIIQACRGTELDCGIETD
T3 sequence (P42574 176-277 limits assumed): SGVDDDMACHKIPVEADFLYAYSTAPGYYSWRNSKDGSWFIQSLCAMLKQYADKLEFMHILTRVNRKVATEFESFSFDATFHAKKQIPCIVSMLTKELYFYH
Procedure: as §1, §2, §3, §4, §5, §6
A secondary graph, obtained from the values of the slopes of the Lineweaver-Burk plot as a function of the concentration of inhibitor, makes it possible to obtain the value of the Ki. Its value is given by the abscissa point at the origin. […]

[1] = tested on: hippocampal neurons intoxicated with Aβ1-42 oligomers; assay: Protection against Abeta neurotoxicity in primary hippocampal neurons in microfluidic chambers; assay type: cell-based, mice; details: Aβ intoxicated cells not pretreated, 6 h of intoxication, vs non-intoxicated
Excerpt: Hippocampus are micro-dissected from E16 embryos of C57B16/J wt mice (Rene Janvier, France) in cold Gey's Balanced Salt Solution (GBSS, Sigma) supplemented with 0.1% glucose (Life technologies).
Dissected structures are digested with papain (20 U/ML in DMEM, Sigma; St. Louis, Mo., USA) and mechanically dissociated in the presence of DNAse. Hippocampal cells are then rinsed and re-suspended in DMEM (Life Technologies, Inc., Gaithersburg, Md., USA) to a final density of 18 million cells/ml in Neurobasal (Life technologies) and Glutamax (0.1% LifeTechnologies) supplemented with B27 (1/50) and penicilline/sptreptomycine 1% (Gibco).
This cell suspension is then used to fill the reservoirs of microfluidic chambers, as described (Peyrin et al, 2011 Lab Chips 11(21):3663; Deleglise et al, 2014 Acta Neuropathologica Comm. 2: 145). Microfluidic chips are placed in plastic Petri dishes containing H20-EDTA to prevent evaporation and incubated at 37° C. in a humid 5% CO2 atmosphere. The culture medium is renewed every seven days.
Oligomeric form of Aβ1-42 (Tocris Bioscience, MN, USA), is produced according to Stine W B et al (2003) in J Biol Chem 278, pp 11612-11622 and can be controlled by electron microscopy as in Deleglise B et al. in Acta Neuropathol Commun. 2014; 2: 145).
Briefly, Aβ1-42 lyophilized peptides are solubilized at 1 mM in 1, 1, 1, 3, 3, 3,-hexafluoro-2-propanol (HFIP, Sigma Aldrich). After 30 min of incubation at RT, HFIP is evaporated for 12 h under chemical hood and peptides are dried for 1 h (with a Speed Vac at 4° C.). Then, 5 mM Aβ peptide stock solutions are obtained by resolubilization at in dimethylsulfoxide (DMSO, Sigma Aldrich). To obtain oligomers, Aβ peptide stock solution is diluted in cold phenol free DMEM-F12 medium (Life Technologies) to a final concentration of 100 μM. The solution is then incubated 24 h at 4° C. Soluble Aβ oligomer fraction is collected from the supernatant after a centrifugation step at 20 000 g (10 min; 4° C.), and stored at −80° C. until use.
After 18 days of culture in micro fluidic chambers, hippocampal cells are pre-incubated for 1 h with compounds of the invention prior diluted in phenol free DMEM-F12 medium or in phenol free DMEM-F12 medium alone as a control solution. Cells are then intoxicated for 3 h to 6 h or 24 h with 10 or 100 nm of Aβ1-42 oligomers (or with phenol free DMEM-F12 medium alone as a control solution). After the intoxication step, cells are fixed in 4% paraformaldehyde (PFA, Sigma; St. Louis, Mo., USA) for 20 min RT, and labelled as explained below to evaluate synapses status, cell death or axonal degeneration.
Briefly, after the fixation step, cultures cells are washed twice with PBS+Azide 0.1% for 5 min and permeabilized for 10 min with 0.2% Triton X-100 and 0.1% BSA (Bovine Serum Albumin, Sigma) in PBS+Azide 0.1%. Saturation step is then realized by incubating cells during 30 min in PBS+Azide 0.1%+BSA1%. Primary antibodies are then added and the samples incubated at 4° C. overnight in PBS. Afterwards, samples are rinsed twice for 5 min with PBS+Azide 0.1% and further incubated with the corresponding secondary antibody together with phalloidin conjugated to Alexa Fluor 555 for 2 h RT. The chips were then rinsed twice with PBS+Azide 0.1%.
The following antibodies are used: rabbit polyclonal anti-MAP-2 (AB5622; 1/400, MILLIPORE), mouse monoclonal Anti-Bassoon SAP7F407; 1:400, Enzo LifeSciences). Species-specific secondary antibodies coupled to Alexa 350, 488 or 500 are used (1/500, Life Technologies, Inc., Gaithersburg, Md., USA). Phalloidin conjugated to Alexa Fluor 555 (1/500, EnzoLifeTechnologies) is used to stain F-actin.
Images are acquired with an Axio-observer Zl (Zeiss, Germany) fitted with a cooled CCD camera (CoolsnapHQ2, Ropert Scientific). The microscope is controlled with Metamorph and Micro-manager software. Images were analyzed using ImageJ software.

CC(C)[C@H](NC(=O)c1ccc2ccccc2n1)C(=O)N[C@@H](CC(=O)O)C(=O)N[C@H](C(=O)N1CC[C@H](CC(C)(C)C)[C@H]1C(=O)N[C@@H](CC(=O)O)C(=O)COc1c(F)cccc1F)C(C)C (single isomer, unassigned) [Compound 2 enantiomer b]
k3/KI Casp2 (Caspase-2; human recombinant Caspase-2 0.1 nM, 37° C.): 1 720 M^−1 · s^−1 | Selectivity ratio (C2/C3) (symbol) (Caspase-2; ratio of k3/KI Casp2 to Casp3): +++ (+++: as no inhibitory activity is detectable toward casp3, selectivity is very important (>>1000).)

CC(=O)N[C@@H](CC(=O)O)C(=O)N[C@@H](CCC(=O)O)C(=O)N[C@H](C(=O)N[C@H](C=O)CC(=O)O)C(C)C [Ac-DEVD-CHO]
IC50 (Casp-2): 3910 ± 189 nM | Ki (Casp-2): 3220 nM

CC(=O)N[C@H](C(=O)N[C@@H](CC(=O)O)C(=O)N[C@H](C(=O)N[C@@H](C)C(=O)N[C@H](C=O)CC(=O)O)C(C)C)C(C)C [Ac-VDVAD-CHO] (Ac-VDVAD-aldehyde)
IC50 (Caspase-3; 30 minutes at 37° C. preincubation): 7.23 nM | Ki (Caspase-3; secondary plot of Lineweaver-Burk): 7.68 nM | Selectivity Indexes (KiCasp3/KiCasp2) (Casp-2): 1.3 | IC50 (Casp-2): 6.9 nM | Ki (Casp-2): 6.31 nM

Aβ alone: Oligomeric form of Aβ1-42 (Tocris Bioscience) used to intoxicate neurons [reference compound]
decrease in synapse number [1]: ~50%
